# Ends that are not written are not given here.
# Experiments:
# [1] = system: IgG from human donors (anti-AAV antibodies); experiment: Screen for anti-AAV antibodies in human sera, 2452 linear 15-amino-acid AAV peptides on microarrays (Table 1); format: binding; set-up: key to group I: X: the deduplicated aggregate of the respective top 10 peptide hits for each donor was compiled and designated as group I; key to group II: X: the deduplicated aggregate of the respective top 25 peptide hits for each donor was compiled and designated as group II; key to group III: X: the deduplicated aggregate of the respective top 50 peptide hits for each donor was compiled and designated as group III; conditions: human donor IgG binding to linear 15-amino-acid AAV peptides on microarray, fluorescence; for group II: membership in deduplicated aggregate of top 25 peptide hits for each donor; for group III: membership in deduplicated aggregate of top 50 peptide hits for each donor; for group I: membership in deduplicated aggregate of top 10 peptide hits for each donor
# Procedure, shortened: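 Peptide hits were grouped I to IV by pooling each donor's top 10, 25, 50 or 250 background-corrected fluorescence signals, after deduplication. Signals came from donor IgG, purified on protein G, bound to arrayed 15-residue linear peptides (2452 total) spanning 16 AAV sequences.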
# [2] = system: polyclonal antibody ab6982; experiment: Epitope mapping of polyclonal antibody ab6982 against cyclic peptides of Ad5 fiber and hexon (peptide array); format: binding, rabbits; conditions: cyclic peptides of fiber protein (clusters 1-7)
Sequence,group II [1],group III [1],antibody binding signal ranking from the microarray experiment [2],group I [1]
KSNNVEFAVNTEGV [SEQ ID NO: 2016],X,X,009,–
PVPADPPTAFNKDK (REGION 1..14: note = peptide derived from viral capsid protein) [SEQ ID NO: 2018],X,X,012,–
ADPPTTFNQAKLAS [SEQ ID NO: 2009],X,X,060,–
QQRLSKTANDNNNS [SEQ ID NO: 1993],X,X,019,X
KRLNFEEDTGAGDG [SEQ ID NO: 2053],X,X,022,–
STGQVAVQIEWEIE [SEQ ID NO: 2055],X,X,049,–
PVPANPPTTFSPAK [SEQ ID NO: 1992],X,X,010,X
QSSNTAPTTRTVND (REGION 1..14: note = peptide derived from viral capsid protein) [SEQ ID NO: 1994],X,X,024,X
VMITDEEEIRTTNP (REGION 1..14: note = peptide derived from viral capsid protein) [SEQ ID NO: 1998],X,X,052,X
EEEIKATNPVATER [SEQ ID NO: 2045],X,X,148,–
TTSGETLNQGNAAT [SEQ ID NO: 2057],X,X,079,–
ADPPTTFNQSKLNS [SEQ ID NO: 2024],X,X,032,–
IEMRAAPGGNAVDA [SEQ ID NO: 2052],X,X,014,–
QTGDADSVPDPQPL (not fully specified) [SEQ ID NO: 2008],X,X,056,–
RDWQRLINNNWGLR [SEQ ID NO: 2038],X,X,082,–
APGKKRPVEHSPVE (REGION 1..14: note = peptide derived from viral capsid protein) [SEQ ID NO: 1999],X,X,061,X
THSTLDGRWSALTP (REGION 1..14: note = peptide derived from viral capsid protein) [SEQ ID NO: 2042],X,X,117,–
HSQSLDRMMNPLLD [SEQ ID NO: 2033],X,X,062,–
QIFADSSYELPYVM [SEQ ID NO: 2041],X,X,112,–
DIYYQGPIWAKIPH (REGION 1..14: note = peptide derived from viral capsid protein) [SEQ ID NO: 2040],X,X,102,–

Sequence,group II [1],group III [1],antibody binding signal ranking from the microarray experiment [2],group I [1]
GESESVPDPQPIGE [SEQ ID NO: 2058],X,X,091,–
TTSGTTNQSRLLFS (REGION 1..14: note = peptide derived from viral capsid protein) [SEQ ID NO: 1997],X,X,041,X
LSKTANDNNNSNFP (REGION 1..14: note = peptide derived from viral capsid protein) [SEQ ID NO: 1988],X,X,001,X
LQRGNRQAATADVN (REGION 1..14: note = peptide derived from viral capsid protein) [SEQ ID NO: 2026],X,X,044,–
QQRVSKTSADNNNS (REGION 1..14: note = peptide derived from viral capsid protein) [SEQ ID NO: 2007],X,X,015,–
NPVATEQYGSVSTN (REGION 1..14: note = peptide derived from viral capsid protein) [SEQ ID NO: 2005],X,X,004,–
GGQMATNNQSLALG [SEQ ID NO: 2021],X,X,020,–
FEKVPFHSMYAHSQ (REGION 1..14: note = peptide derived from viral capsid protein) [SEQ ID NO: 2031],X,X,058,–
KNTPVPADPPTTFN (REGION 1..14: note = peptide derived from viral capsid protein) [SEQ ID NO: 2011],X,X,076,–
KRVLEPLGLVESPV [SEQ ID NO: 2012],X,X,085,–
DKFFPMSGVMIFGK (not fully specified) [SEQ ID NO: 2044],X,X,147,–
NQTDRNAFYCLEYF [SEQ ID NO: 2036],X,X,072,–
TTSANNLLFTSEEE [SEQ ID NO: 2056],X,X,078,–
SDSEYQLPYVLGSA [SEQ ID NO: 2050],X,X,197,–
RVSKTKTDNNNSNF [SEQ ID NO: 2049],X,X,178,–
PQILIKNTPVPANP (REGION 1..14: note = peptide derived from viral capsid protein) [SEQ ID NO: 2006],X,X,006,–
TVQIFADSTYELPY [SEQ ID NO: 2039],X,X,093,–
PEPADVFMIPQYGY [SEQ ID NO: 2029],X,X,029,–
DIYYQGPIWAKVPH [SEQ ID NO: 2030],X,X,030,–
